Assay results reported in patent US20150374658A1, “COMPOSITION COMPRISING LICORICIDINE” (ANALYTICON DISCOVERY GMBH, priority 2012, published 2015).
≈ marks a conversion by molar mass, not a printed value.

Legend:
[1] = tested on: Corynebacterium xerosis DSM 20743 (ATCC 373); assay: Classic assay, planktonic growth (OD580); type: cell-based; conditions: read-out: IC50, planktonic growth
Description: (§1) Corynebaterium xerosis is usually characterized as a rod-like gram positive bacterium. Under laboratory conditions (96 well plates) it takes ˜24 hours until Corynebaterium xerosis reaches stationary growth phase. Within this period planktonic growth can be quantified by spectroscopic means and a biofilm can be detected and quantified by standard crystal violet incorporation (c.f. O'Toole & Kolter, 1998, Mol. Microbiol. 28(3), 449-461). Planktonic growth denotes growth of non-adherent cells in the bulk liquid whereas biofilm denotes growth of cells adherent to solid surfaces.
(§2) Routine susceptibility testing of C. xerosis in high throughput format was done by simultaneous addition of test compounds and inoculum (“classic assay”). Growth of untreated (i.e. no extracts or test compounds added, control) planktonic cells ceased 7 hours after inoculation, and decreased by 13% at 24 hours. Biofilm development reached maximum 10 hours upon inoculation and kept constant for the rest of the test period (30 hours).
(§3) Formation of planktonic and biofilm cells was determined 18-24 hours after inoculation, thus at a time when some planktonic cells lysed. […]
(§4) Effects of test compounds were evaluated by comparison of turbidity (optical density, OD580) and crystal violet staining (biofilm; CV580) of treated and untreated samples (control; 100%). […]

[2] = tested on: Corynebacterium xerosis DSM 20743 (ATCC 373); assay: Classic assay, biofilm formation (crystal violet, CV580); type: cell-based; conditions: read-out: IC50, biofilm growth mode
Description: as §1, §2, §3, §4

[3] = Stability assessment of licoricidine using different stabilizers (HPLC peak area, storage at 40° C.); type: physicochemical; conditions: HPLC UV 225 nm
Description: Five times 5 mg ethanolic extract (0.1%) were dissolved in 1.5 ml ethanol and 3.5 ml buffer pH 7. • To the first batch 20 mg citric acid (0.4%) were added as a stabilizer and the resulting batch was stored at 40° C. • To the second batch 50 mg citric acid (1.0%) were added as a stabilizer and the resulting batch was stored at 40° C. • To the third batch 20 mg ascorbic acid (0.4%) were added as a stabilizer and the resulting batch was stored at 40° C. • To the fourth batch 50 mg ascorbic acid (1.0%) were added as a stabilizer and the resulting batch was stored at 40° C. • The fifth batch was stored as a reference at −18° C.
30 mg lipophilic extract were dissolved in 30 ml safflower oil at 80° C.
The obtained solution was split into three batches: • To the first batch 10 mg/ml ascorbic acid palmitate were added as a stabilizer and the resulting batch was stored at 40° C. • To the second batch 10 mg/ml BHA (Butylhydroxyanisol) were added as a stabilizer and the resulting batch was stored at 40° C. • The third batch was stored as a reference at −18° C.
Dissolve 120 mg lipophilic extract in 30 ml safflower oil at 80° C.
Split in tree (3) batches: • Add to the first batch 10 mg/ml ascorbic acid palmitate as a stabilizer and store at 40° C. • Add to the second batch 10 mg/ml BHA (Butylhydroxyanisol) as a stabilizer and store at 40° C. • Freeze the third batch as a reference at −18° C.
• Add to 10 ml maceration oil 100 mg ascorbic acid palmitate as a stabilizer and store at 40° C. • Add to 10 ml maceration oil 100 mg BHA (Butylhydroxyanisol) as a stabilizer and store at 40° C. • Freeze 10 ml maceration oil as a reference at −18° C.
0.5 ml of the respective oil prepared according to any one of examples 5.1 to 5.4 was extracted with 3 ml methanole/water (9:1), centrifugated and the supernatant was used for the analysis.
• Column: Kromasil C18, 125×4 mm with pre-column • Detection: UV (225 nm) • Mobile Phase: A: water with 5 mM ammoniumformiate and 0.1% formic acid; • B: acetonitrile/methanol=1:1, 5 mM ammoniumformiate and 0.1% formic acid • Gradient: from 60% B to 80% B in 30 min • Flow: 0.8 ml/min • The retention time of the reference peak (licoricidine) is 16.9 (±0.2) min.

Row | decrease of the peak area of licoricidine ([3]; aqueous solution (buffer pH 7 in addition of 30% ethanol) with 0.1% ethanolic extract and 1% citric acid, eight (8) weeks storage at 40° C.) | decrease of the peak area of licoricidine ([3]; maceration oil with addition of 1% BHA, twelve (12) weeks storage at 40° C.) | decrease of the peak area of licoricidine ([3]; safflower oil with 0.1% lipophilic extract, 1% BHA, twelve (12) weeks storage at 40° C.) | decrease of the peak area of licoricidine ([3]; safflower oil with 0.4% lipophilic extract, 1% BHA, twelve (12) weeks storage at 40° C.) | IC50 ([2]; serial dilutions, classic assay) | SMILES | IC50 [1] | IC50 [2]
1 |  |  |  |  |  | Oc1cc(Cl)ccc1Oc1ccc(Cl)cc1Cl [Triclosan, 5-chloro-2-(2,4-dichlorophenoxy)-phenol, reference compound] | 1.7 µg/mL (≈ 5.87 µM) | 0.6 µg/mL (≈ 2.07 µM)
2 | lower than 20% | lower than 20% | lower than 20% | lower than 20% | 4.3 µg/mL (≈ 10.1 µM) | COc1c(CC=C(C)C)c(O)cc2c1C[C@H](c1ccc(O)c(CC=C(C)C)c1O)CO2 [licoricidine] |  | 
